Results reported in patent publication US20110028447A1, “INDAZOLE DERIVATIVES” (Pfizer Inc., priority 2008, published 2011).
Where two headings read alike, the source gives them in different places.

Experiments:
[1] = molecular target: T1, human CB1 receptor (Homo sapiens, UniProt P21554); assay: Human CB1 receptor binding, [3H] CP-55,940 displacement on HEK cell membranes; design: expressed in transfected cells; host or cells: HEK cells, doxycycline-induced; membrane preparation
In short: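 Membranes from doxycycline-induced HEK cells expressing human CB1 incubated 60 min at room temperature with [3H] CP-55,940 (final […]) in 50 mM Tris pH 7.4, 100 mM NaCl, 3 mM MgCl2, 0.2 mM EGTA, 0.04% BSA. Nonspecific binding defined with 50 μM WIN-55,212-2; filtration and scintillation counting gave EC50 and Ki.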

[2] = molecular target: T1, human CB1 receptor; assay: [35S] GTPγS binding on membranes of CHO cells expressing the human CB1 receptor (agonism); assay type: biochemical; design: expressed in transfected cells; membrane preparation
In short: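 Membranes from human CB1-expressing CHO cells (5 μg/well) incubated with test compound and [35S]GTPγS in 50 mM Tris pH 7.4, 100 mM NaCl, 3 mM MgCl2, 0.2 mM EGTA, 0.04% BSA for 45 min at 37 °C. Bound label collected by filtration, scintillation counted; EC50 from curve fits.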

[3] = human CB1, CHO cell membranes, read-out: GTPγS EC50
[4] = GTPγS EC50, human CB1, CHO cell membranes

T1 sequence (P21554 whole entry): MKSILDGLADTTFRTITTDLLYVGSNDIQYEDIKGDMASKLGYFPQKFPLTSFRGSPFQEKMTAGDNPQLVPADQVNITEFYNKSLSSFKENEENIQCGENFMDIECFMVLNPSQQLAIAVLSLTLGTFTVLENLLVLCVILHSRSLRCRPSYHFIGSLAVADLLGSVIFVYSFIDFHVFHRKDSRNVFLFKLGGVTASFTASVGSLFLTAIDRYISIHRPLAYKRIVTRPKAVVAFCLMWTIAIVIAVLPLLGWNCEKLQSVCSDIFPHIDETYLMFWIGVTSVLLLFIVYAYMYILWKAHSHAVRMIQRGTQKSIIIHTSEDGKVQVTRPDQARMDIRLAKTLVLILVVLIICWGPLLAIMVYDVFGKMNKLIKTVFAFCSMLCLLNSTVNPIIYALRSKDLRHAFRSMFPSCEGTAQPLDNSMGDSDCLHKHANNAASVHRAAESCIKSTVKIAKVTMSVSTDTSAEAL

SMILES	Ki ([1]; read-out: CB1 Ki) [nM]	EC50 [2, 3] [nM]	Ki ([1]; CB1 Ki) [nM]	EC50 [2, 4] [nM]
Cn1nc(CNC(=O)[C@@H](NC(=O)c2nn(Cc3ccc(F)cc3)c3ccccc23)C(C)(C)C)cc1C1CCC1 [Example 416]	9.26	47.1		
CC(C)(C)[C@H](NC(=O)c1nn(Cc2ccc(F)cc2)c2ccccc12)C(=O)NCc1cnn2cccnc12 [Example 417]	7.84	25.7		
CC(C)(C)[C@H](NC(=O)c1nn(Cc2ccc(F)cc2)c2ccccc12)C(=O)NCc1nc(-c2cnccn2)no1 [Example 418]	0.78	4.07		
CC(C)(C)[C@H](NC(=O)c1nn(Cc2ccc(F)cc2)c2ccccc12)C(=O)NCc1cc(C2CCC2)[nH]n1 [Example 420]	11.2	43.7		
Cc1nc(CNC(=O)[C@@H](NC(=O)c2nn(Cc3ccc(F)cc3)c3ccccc23)C(C)(C)C)nn1C [Example 421]	2.88	17.2		
CC(C)(C)[C@H](NC(=O)c1nn(Cc2ccc(F)cc2)c2ccccc12)C(=O)NCc1cc(C2CC2)[nH]n1 [Example 422]	4.67	19.6		
Cn1cc(CNC(=O)[C@@H](NC(=O)c2nn(Cc3ccc(F)cc3)c3ccccc23)C(C)(C)C)cn1 [Example 423]			5.19	30.8
CC(C)(C)[C@H](NC(=O)c1nn(Cc2ccc(F)cc2)c2ccccc12)C(=O)NCc1nc(-c2ccccn2)no1 [Example 424]	1.28	10.2		
Cc1cc(CNC(=O)[C@@H](NC(=O)c2nn(Cc3ccc(F)cc3)c3ccccc23)C(C)(C)C)no1 [Example 425]			0.92	3.36
CC(C)(C)[C@H](NC(=O)c1nn(Cc2ccc(F)cc2)c2ccccc12)C(=O)NCc1cnn(-c2ccccc2)n1 [Example 427]	15	50.5		
CC(C)(C)[C@H](NC(=O)c1nn(Cc2ccc(F)cc2)c2ccc(Cl)cc12)C(=O)NCCS(N)(=O)=O [Example 432]			15.7	101
CC(C)(C)[C@H](NC(=O)c1nn(Cc2ccc(F)cc2)c2ccc(Cl)cc12)C(=O)NC1CCC1 [Example 438]			10.9	20
CC(C)(C)[C@H](NC(=O)c1nn(Cc2ccc(C#N)cc2)c2c(F)cccc12)C(=O)N[C@@H]1CNC(=O)C1 [Example 457]			1.77	108
CC(C)(C)[C@H](NC(=O)c1nn(Cc2ccc(F)cc2)c2ccccc12)C(=O)N[C@@H]1CNC(=O)C1 [Example 459]			2.78	17.7
CC(C)(C)[C@H](NC(=O)c1nn(Cc2ccc(F)cc2)c2ccccc12)C(=O)NCc1nnc(C(=O)NCCO)o1 [Example 462]	2.29	13		
CC(C)(C)[C@H](NC(=O)c1nn(Cc2ccc(F)cc2)c2ccccc12)C(=O)NCCC(N)=O [Example 470]			11.2	33.7
CC(C)(C)[C@H](NC(=O)c1nn(Cc2ccc(F)cc2F)c2ccccc12)C(=O)NCCC(N)=O [Example 472]			19.6	52.7
CC(C)(C)[C@H](NC(=O)c1nn(Cc2ccc(F)c(F)c2)c2ccccc12)C(=O)NCCC(N)=O [Example 473]			17	41.8
CC(C)(C)[C@H](NC(=O)c1nn(Cc2ccc(F)cc2)c2c(F)cccc12)C(=O)NCCC(N)=O [Example 476]			6.48	31.4
CC(C)(C)[C@H](NC(=O)c1nn(Cc2ccc(F)cc2)c2ccccc12)C(=O)NCCOc1ccccn1 [Example 478]	21.3	23.7		
CC(C)(C)[C@H](NC(=O)c1nn(Cc2ccc(F)cc2)c2ccccc12)C(=O)NCCOc1ccnc(N)n1 [Example 479]	13.4	131		
CC(C)(C)[C@H](NC(=O)c1nn(Cc2ccc(F)cc2)c2ccccc12)C(=O)NCCNc1ccccn1 [Example 480]	15.3	42.6		
CC(C)(C)[C@H](NC(=O)c1nn(Cc2ccc(F)cc2)c2ccccc12)C(=O)NCCc1cnccn1 [Example 482]	12.1	22.2		
CC(C)(C)[C@H](NC(=O)c1nn(Cc2ccc(F)cc2)c2ccccc12)C(=O)NC[C@H]1C[C@@H]1CO [Example 488]			5.61	21.4
CC(C)(C)[C@H](NC(=O)c1nn(Cc2ccc(C#N)cc2)c2c(F)cccc12)C(=O)NC[C@H]1C[C@H]1CO [Example 490]			12.4	63.1

SMILES	Ki ([1]; read-out: CB1 Ki) [nM]	EC50 [2, 3] [nM]	Ki ([1]; CB1 Ki) [nM]	EC50 [2, 4] [nM]
CC(C)(C)[C@H](NC(=O)c1nn(Cc2ccc(F)cc2)c2ccccc12)C(=O)NC[C@H]1C[C@H]1CO [Example 492]			1.32	9.71
CC(C)NC(=O)CNC(=O)[C@@H](NC(=O)c1nn(Cc2ccc(F)cc2)c2ccccc12)C(C)(C)C [Example 493]			0.95	9.94
CC(C)(C)[C@H](NC(=O)c1nn(Cc2ccc(F)cc2)c2ccccc12)C(=O)NCC(=O)NC1CC1 [Example 494]			0.34	1.17
CC(C)(C)[C@H](NC(=O)c1nn(Cc2ccc(F)cc2)c2c(F)cc(Cl)cc12)C(=O)NC[C@H](O)CO [Example 496]			16.5	30.2
CC(C)(C)[C@H](NC(=O)c1nn(Cc2ccc(F)cc2)c2c(F)cc(Cl)cc12)C(=O)NCCS(N)(=O)=O [Example 497]			16.7	59.5
CC(C)(C)[C@H](NC(=O)c1nn(Cc2ccc(F)cc2)c2c(F)cc(Cl)cc12)C(=O)NCC(N)=O [Example 498]			16.4	38.3
CC(C)(C)[C@H](NC(=O)c1nn(Cc2ccc(F)cc2)c2ccccc12)C(=O)NCCN1CCCC1=O [Example 499]	18.3	204		
CC(C)(C)[C@H](NC(=O)c1nn(Cc2ccc(F)cc2)c2ccccc12)C(=O)NCCN1Cc2ncccc2C1=O [Example 500]	10.1	47.4		
CC(C)(C)[C@H](NC(=O)c1nn(Cc2ccc(F)cc2)c2ccccc12)C(=O)NCCc1nc2ccccc2c(=O)[nH]1 [Example 501]	24.2	16.8		
CC(C)(C)[C@H](NC(=O)c1nn(Cc2ccc(F)cc2)c2ccccc12)C(=O)NCCn1ccccc1=O [Example 502]	17.3	36.9		
CC(C)(C)[C@H](NC(=O)c1nn(Cc2ccc(F)cc2)c2ccccc12)C(=O)NC[C@H](O)CN1CCOCC1 [Example 504]	21.3	132		
CC(C)(C)[C@H](NC(=O)c1nn(Cc2ccc(F)cc2)c2ccccc12)C(=O)NCCc1n[nH]c(=O)[nH]1 [Example 506]	1.3	8.97		
Cc1cc2c(C(=O)N[C@H](C(=O)NCc3nnc(C(N)=O)o3)C(C)(C)C)nn(Cc3ccc(F)cc3)c2cc1F [Example 508]	2.71	16.2		
Cc1cc2c(C(=O)N[C@H](C(N)=O)C(C)(C)C)nn(Cc3ccc(F)cc3)c2cc1F [Example 509]			0.45	7.55
Cc1cc2c(C(=O)N[C@H](C(=O)NC[C@H](O)CO)C(C)(C)C)nn(Cc3ccc(F)cc3)c2cc1F [Example 510]			6.87	24.8
Cc1cc2c(C(=O)N[C@H](C(=O)NCCO)C(C)(C)C)nn(Cc3ccc(F)cc3)c2cc1F [Example 511]			0.68	6.7
Cc1cc2c(C(=O)N[C@H](C(=O)NCCS(N)(=O)=O)C(C)(C)C)nn(Cc3ccc(F)cc3)c2cc1F [Example 512]			8.4	31.4
CC(C)(C)[C@H](NC(=O)c1nn(Cc2ccc(F)cc2)c2ccccc12)C(=O)Nc1cnoc1 [Example 513]			2.3	13.7
Cc1cc(NC(=O)[C@@H](NC(=O)c2nn(Cc3ccc(F)cc3)c3ccccc23)C(C)(C)C)sn1 [Example 514]			3.03	33.3
CC(C)(C)[C@H](NC(=O)c1nn(Cc2ccc(F)cc2)c2ccccc12)C(=O)NC[C@@H](O)[C@H](O)CO [Example 516]			4.28	44.6
CC(C)(C)[C@H](NC(=O)c1nn(Cc2ccc(F)cc2)c2ccccc12)C(=O)NC[C@H](O)[C@@H](O)CO [Example 517]			15.9	111
CC(C)(C)[C@H](NC(=O)c1nn(Cc2ccc(F)cc2)c2ccccc12)C(=O)NCC(=O)Nc1cnoc1 [Example 518]	1.8	13.6		
CC(C)(C)[C@H](NC(=O)c1nn(Cc2ccc(F)cc2)c2ccccc12)C(=O)NCC(=O)Nc1nncs1 [Example 519]	0.95	5.77		
CC(C)(C)[C@H](NC(=O)c1nn(Cc2ccc(F)cc2)c2ccccc12)C(=O)NCC(=O)Nc1ccccn1 [Example 520]	1.88	10.1		
CC(C)(C)[C@H](NC(=O)c1nn(Cc2ccc(F)cc2)c2ccccc12)C(=O)NCC(=O)NC[C@@H](O)CO [Example 523]	5.22	2.8		
